In paper PMC6968685 (Journal of Enzyme Inhibition and Medicinal Chemistry, 2020):

Tests used:
[1] = test system: P. falciparum CQ-resistant strain W2; assay: In vitro antiplasmodial activity, SYBR Green I fluorescence-based method, strain W2; assay type: cell-based; settings: Plasmodium falciparum; chloroquine-resistant strain W2; 48 h incubation; read-out: P. falciparum strains IC50 values, W2
Procedure, shortened: (§1)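 P. falciparum 3D7 and W2 cultured in human erythrocytes in RPMI with 0.5% Albumax I at 37 °C, exposed 48 h to compounds tested […]. Parasite DNA read by SYBR Green I fluorescence (ex 485/em 535 nm); IC50 by non-linear regression, mean of three independent experiments.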

[2] = test system: Plasmodium telomeric sequence FPf1T G-quadruplex; assay: FRET melting experiments, FPf1T; assay type: binding, P. falciparum; settings: 2 μM compound, 0.2 μM oligonucleotide, K+ conditions
Experimental: (§2) These were performed with dual-labelled oligonucleotides mimicking the Plasmodium telomeric sequences FPf1T [FAM-5′(GGGTTTA)3-GGG3′-TAMRA] and FPf8T [FAM-5′ (GGGTTCA)3GGG3′-TAMRA], the Trypanosoma 9 and 11 chromosomic sequence FTrypBT (also named FEBR1T) [FAM-5′[…]3′-TAMRA], the human telomeric sequence F21T [FAM-(GGGTTA)3-GGG3′-TAMRA], and the human duplex sequence FdxT [FAM5′-[…]-hexaethyleneglycol-[…]3′-TAMRA][51]^,[52]. The oligonucleotides were pre-folded in 10 mM lithium cacodylate buffer (pH 7.2), with 10 mM KCl and 90 mM LiCl (K^+condition). The FAM emissions were recorded at 516 nm using a 492-nm excitation wavelength in the absence and presence of a single compound as a function of temperature (25–95 °C) in 96-well microplates by using a Stratagene MX3000P real-time PCR device at a rate of 1 °C·min^−1. Data were normalised between 0 and 1, and the required temperature for half-denaturation of oligonucleotides corresponding to the emission value of 0.5 was taken as the Tm. […] For each compound, three independent experiments were carried out.

[3] = test system: T. brucei brucei AnTat 1.9; assay: In vitro antitrypanosomal activity, Alamar Blue assay; assay type: cell-based; settings: Trypanosoma brucei; slender bloodstream trypomastigotes, AnTat 1.9 strain; read-out: Trypanosoma brucei brucei IC50 values, Trypanos Antat 1.9
Procedure, shortened: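 Bloodstream parasites (2000/well) in supplemented MEM with 20% horse serum exposed to compound in duplicate for 69 h at 37 °C, then Alamar Blue added for 5 h; fluorescence read at ex 530/em 590 nm. IC50 by nonlinear regression, from three independent experiments.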

[4] = Cytotoxicity evaluation, MTT; assay type: cell-based, human; settings: human
Procedure, shortened: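 HepG2 hepatocarcinoma cells exposed to compound in duplicate, then viability measured by MTT reduction (0.5 mg/ml), formazan dissolved in DMSO and read at 570 nm against 630 nm. Viability expressed as percent of untreated cells; CC50 taken from dose-response curve, doxorubicin as positive control.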

[5] = test system: L. donovani (MHOM/IN/00/DEVI) promastigotes; assay: In vitro antileishmanial activity, MTT assay on promastigotes; assay type: cell-based; settings: Leishmania donovani, 72 h incubation, ≥10 = no activity noted at the highest concentration tested
Procedure, shortened: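 Log-phase L. donovani MHOM/IN/00/DEVI promastigotes (10^6/ml, Schneider's + 20% FCS) were exposed to graded compound concentrations (DMSO <0.5% v/v) for 72 h at 27 °C, in duplicate. Growth measured by MTT reduction (4 h, A570 nm); IC50 obtained by regression.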

[6] = test system: Trypanosoma 9 and 11 chromosomic sequence FTrypBT (FEBR1T) G-quadruplex; assay: FRET melting experiments, FtrypBT; assay type: binding, T. brucei brucei; settings: 2 μM compound, 0.2 μM oligonucleotide, K+ conditions
Experimental: as §2

[7] = test system: Plasmodium telomeric sequence FPf8T G-quadruplex; assay: FRET melting experiments, FPf8T; assay type: binding, P. falciparum; settings: 2 μM compound, 0.2 μM oligonucleotide, K+ conditions
Experimental: as §2

[8] = test system: human telomeric sequence F21T G-quadruplex; assay: FRET melting experiments, F21T; assay type: binding; settings: 2 μM compound, 0.2 μM oligonucleotide, K+ conditions
Experimental: as §2

[9] = test system: human duplex sequence FdxT; assay: FRET melting experiments, FdxT duplex control; assay type: binding; settings: 2 μM compound, 0.2 μM oligonucleotide, K+ conditions
Experimental: as §2

[10] = test system: P. falciparum CQ-sensitive strain 3D7; assay: In vitro antiplasmodial activity, SYBR Green I fluorescence-based method, strain 3D7; assay type: cell-based; settings: Plasmodium falciparum; chloroquine-sensitive strain 3D7; 48 h incubation; read-out: P. falciparum strains IC50 values, 3D7
Procedure, shortened: as §1

SMILES	IC50 [1] [µM]	ΔTm FPf1T [2] [°C]	IC50 [3] [µM]	CC50 at 72 h [4] [µM]	IC50 [5] [µM]	ΔTm FtrypBT [6] [°C]	ΔTm FPf8T [7] [°C]	ΔTm F21T [8] [°C]	ΔTm FdxT [9] [°C]	IC50 [10] [µM]
COc1ccc2cc(-c3ccc(CNCCCCN(C)C)cc3)nc(-c3ccc(CNCCCCN(C)C)cc3)c2c1 [Compound 2e, 7-Methoxy-1,3-bis{4-[(4-dimethylaminobutyl)aminomethyl]phenyl}isoquinoline]	6.06 ± 0.64	27.3 ± 1.1	0.55 ± 0.122	9.57 ± 1	≥ 10	24.0 ± 0.3	26.6 ± 0.2	22.2 ± 0.1	4.1 ± 0.3	4.41 ± 0.51
COc1ccc2nc(-c3ccc(CNCCCCN(C)C)cc3)nc(-c3ccc(CNCCCCN(C)C)cc3)c2c1 [Compound 3h, 6-Methoxy-2,4-bis{4-[(4-dimethylaminobutyl)aminomethyl]phenyl}quinazoline]	3.68 ± 0.5	19.8 ± 0.6	0.27 ± 0.035	11.7 ± 1.2	≥ 10	15.7 ± 0.3	18.8 ± 0.7	16.4 ± 1.3	2.0 ± 0.2	3.84 ± 0.38
COc1ccc2c(-c3ccc(CNCCCCN(C)C)cc3)nc(-c3ccc(CNCCCCN(C)C)cc3)nc2c1 [Compound 3m, 7-Methoxy-2,4-bis{4-[(4-dimethylaminobutyl)aminomethyl]phenyl}quinazoline]	4.22 ± 0.55	18.3 ± 0.7	0.75 ± 0.06	25.1 ± 1.2	≥ 10	13.8 ± 0.5	17.8 ± 0.5	19.4 ± 0.4	1.7 ± 0.3	1.18 ± 0.43
CN1CCN(CCCNCc2ccc(-c3cc(-c4ccc(CNCCCN5CCN(C)CC5)cc4)c4ccccc4n3)cc2)CC1 [Compound 1e, 2,4-Bis{4-[(3–(4-methylpiperazin-1-yl)propyl)aminomethyl]phenyl}quinoline]	1.29 ± 0.063	9.4 ± 0.6	1.78 ± 0.089	11.3 ± 0.5	≥ 10	7.4 ± 0.1	9.2 ± 0.5	11.3 ± 1.1	0.1 ± 0.1	0.47 ± 0.06
COc1ccc2c(-c3ccc(CNCCCCN(C)C)cc3)nc(-c3ccc(CNCCCCN(C)C)cc3)cc2c1 [Compound 2i, 6-Methoxy-1,3-bis{4-[(4-dimethylaminobutyl)aminomethyl]phenyl}isoquinoline]	2.4 ± 0.49	12.8 ± 1.3	0.64 ± 0.323	10.8 ± 0.8	≥ 10	8.4 ± 0.3	12.9 ± 1.0	23.2 ± 0.6	0.9 ± 0.1	8.46 ± 0.66
COc1ccc2c(-c3ccc(CNCCCN(C)C)cc3)nc(-c3ccc(CNCCCN(C)C)cc3)cc2c1 [Compound 2j, 6-Methoxy-1,3-bis{4-[(3-dimethylaminopropyl)aminomethyl]phenyl}isoquinoline]	5.09 ± 0.76	15.3 ± 0.7	0.59 ± 0.131	2.16 ± 0.2	≥ 10	12.2 ± 1.1	15.0 ± 0.6	13.9 ± 0.1	0.5 ± 0.3	7.21 ± 0.59
COc1ccc2nc(-c3ccc(CNCCCN(C)C)cc3)nc(-c3ccc(CNCCCN(C)C)cc3)c2c1 [Compound 3i, 6-Methoxy-2,4-bis{4-[(3-dimethylaminopropyl)aminomethyl]phenyl}quinazoline]	4.34 ± 0.74	16.0 ± 0.3	0.44 ± 0.084	1.93 ± 0.1	≥ 10	12.7 ± 0.7	15.6 ± 0.3	12.6 ± 0.0	0.3 ± 0.3	4.05 ± 0.95
CN(C)CCNCc1ccc(-c2cc(-c3ccc(CNCCN(C)C)cc3)c3ccccc3n2)cc1 [Compound 1c, 2,4-Bis{4-[(2-dimethylaminoethyl)aminomethyl]phenyl}quinoline]	0.34 ± 0.037	2.3 ± 0.7	1.48 ± 0.085	3.1 ± 0.9	≥ 10	2.6 ± 0.4	2.7 ± 0.2	2.8 ± 1.3	−0.5 ± 0.4	0.032 ± 0.004
CN(C)CCCNCc1ccc(-c2cc3ccccc3c(-c3ccc(CNCCCN(C)C)cc3)n2)cc1 [Compound 2b, 1,3-Bis{4-[(3-dimethylaminopropyl)aminomethyl]phenyl}isoquinoline]	3.02 ± 0.25	13.6 ± 1.3	0.35 ± 0.049	3.47 ± 0.3	≥ 10	11.7 ± 0.6	13.0 ± 1.1	12.7 ± 0.3	0.3 ± 0.2	1.82 ± 0.31
COc1ccc2nc(-c3ccc(CNCCN(C)C)cc3)nc(-c3ccc(CNCCN(C)C)cc3)c2c1 [Compound 3j, 6-Methoxy-2,4-bis{4-[(2-dimethylaminoethyl)aminomethyl]phenyl}quinazoline]	1.23 ± 0.15	3.4 ± 0.4	1.04 ± 0.085	3.12 ± 0.2	≥ 10	4.4 ± 0.5	3.1 ± 0.4	7.2 ± 0.4	−0.4 ± 0.2	0.56 ± 0.02
c1cc(CNCCCN2CCOCC2)cc(-c2cc(-c3cccc(CNCCCN4CCOCC4)c3)c3ccccc3n2)c1 [Compound 1s, 2,4-Bis{3-[(3-morpholinopropyl)aminomethyl]phenyl}quinoline]		3.0 ± 0.4	0.73 ± 0.264	2.63 ± 0.5	≥ 10	1.8 ± 0.7	2.8 ± 0.5	2.5 ± 0.1	−1.5 ± 0.4	0.21 ± 0.04
